In EPA's ToxValDB 9.5:
In brackets after ≈: the same amount, converted by molar mass. Several values for one entry are separate records, joined by “and”; a condition that tells them apart may be missing. Equal entries are not always repeated.

What was measured:
Rattus norvegicus [1] = tested on: Rattus norvegicus
Oryctolagus sp. [2] = test: LD0; higher = less toxic; details: acute; dermal; New Zealand
Rattus norvegicus [3] = details: repeat dose other; oral
Oryctolagus sp. [4] = details: developmental; oral; F; excessive loss of litters
Rattus norvegicus [5] = tested on: Rattus norvegicus; remark: listed apart in the source
Mus musculus [6] = details: uterotrophic, Active
Rattus norvegicus [7] = details: for LEL: uterotrophic, Active
Oryctolagus sp. [8] = details: reproduction developmental; duration: 13 days; oral; gavage; Reproduction: Loss of litters
Homo sapiens [9] = details: clinical
Homo sapiens [10] = details: clinical; oral; Cholinesterase: Decreased cholinesterase activity
Mus musculus [11] = details: chronic; duration: 25 months; oral; diet; M/F; Swiss; Histopathology in lungs
Rattus norvegicus [12] = details: chronic, M/F
Rattus norvegicus [13] = test: FEL; higher = less toxic; details: short-term; duration: 10 days; inhalation; M/F; inflammation of the nasal passage
Homo sapiens [14] = details: clinical, oral
Canidae [15] = details: repeat dose other; oral; Dog Other
Rattus norvegicus [16] = details: short-term; duration: 28 days; oral; drinking water; M/F; Wistar; Clinical Observation: Yellowish discoloration of fur + Food Consumption: decrease + Water Consumption: decrease + Blood Chemistry: TP …
Monkey [17] = details: chronic; duration: 26 weeks; inhalation; M; Cynomolgus; respiratory
Rattus norvegicus [18] = details: chronic; duration: 2 years; oral; drinking water; Gastrointestinal tract: Lesions
Mus musculus [19] = details: acute; inhalation
Rattus norvegicus [20] = test: LD0; higher = less toxic; details: acute; oral; gavage
Neovison sp. = details: repeat dose other; oral; Mink
Peromyscus polionotus = details: oral
Phasianus colchicus = details: oral
Monkey [21] = details: chronic; oral; F; decreased antibody (IgG and IgM) response to sheep erythrocytes + Ocular exudate, inflamed and prominent Meibomian glands, distorted growth …
Monkey [22] = details: chronic; duration: 5 years; oral; capsule; Immune system: Toxicity
Oryctolagus sp. [23] = details: New Zealand
Canidae [24] = details: chronic; oral; diet; M/F; Dog Other; rbc and plasma cholinesterase inhibition, and testicular and uterine effects
Canidae [25] = details: chronic; duration: 1 years; oral; diet; Dog Other; Blood: Cholinesterase inhibition + Testis: Effects + Uterus: Effects
Rattus norvegicus [26] = test: LD40; higher = less toxic; details: acute; oral; gavage; Sprague-Dawley
[27] = acute, oral, gavage, Sprague-Dawley
[28] = duration: 2 years, oral, reduced weight gain, histopathology: rats

**Q.** How did the LD50 (Rattus norvegicus [1]; acute, dermal) turn out when `CC12C=CC(C1)C1C(=O)OC(=O)C12` (stereo unspecified) [1,2,3,6-Tetrahydromethyl-3,6-methanophthalic anhydride] was run?
**A.** Its LD50 is 4920 mg/kg and ≥ 3670 mg/kg and ≤ 6590 mg/kg.

**Q.** And the LD50 (Rattus norvegicus [1]; acute, oral)?
**A.** Its LD50 is 914 mg/kg.

**Q.** And the LD50 (Rattus norvegicus [1]; [27])?
**A.** The LD50 was 958 mg/kg and ≥ 856 mg/kg and ≤ 1080 mg/kg.

**Q.** And the LD0 (Oryctolagus sp. [2])?
**A.** The LD0 was > 2000 mg/kg.

**Q.** Which LOAEL (Rattus norvegicus [3]) does the source give for `COc1ccc(C(c2ccc(OC)cc2)C(Cl)(Cl)Cl)cc1` [Methoxychlor] here?
**A.** Its LOAEL is 8 mg/kg-day.

**Q.** And the NOAEL (Rattus norvegicus [3])?
**A.** Its NOAEL is 4 mg/kg-day.

**Q.** What about the LEL (Oryctolagus sp. [4]) of the same compound?
**A.** Its LEL is 35.5 mg/kg-day.

**Q.** What about the NOEL (Oryctolagus sp. [4]) of the same compound?
**A.** The NOEL was 5.01 mg/kg-day.

**Q.** What about the LOAEL (Rattus norvegicus [5]; reproduction developmental, duration: 364 days, oral, gavage, M/F, Sprague-Dawley, reproductive) of the same compound?
**A.** The LOAEL was 5 mg/kg-day.

**Q.** And the LEL (Mus musculus [6]; duration: 3 days, oral)?
**A.** The LEL was 1 mg/day.

**Q.** And the LEL (Mus musculus [6]; duration: 4 days, injection, subcutaneous)?
**A.** The LEL was 100 mg/kg-day.

**Q.** What about the LEL (Mus musculus [6]; duration: 5 days, injection, subcutaneous) of the same compound?
**A.** The LEL was 10 mg/kg-day.

**Q.** What about the LEL (Rattus norvegicus [7]; duration: 1 days, injection, intraperitoneal) of the same compound?
**A.** The LEL was 10 mg and 5 mg/day.

**Q.** What about the LEL (Rattus norvegicus [7]; duration: 1 days, oral) of the same compound?
**A.** The LEL was 125 mg/kg-day.

**Q.** And the LEL (Rattus norvegicus [7]; duration: 4 days, injection, intraperitoneal)?
**A.** The LEL was 0.75 mg/kg-day.

**Q.** What about the LEL (Rattus norvegicus [7]; duration: 7 days, injection, subcutaneous) of the same compound?
**A.** Its LEL is 100 mg/kg-day.

**Q.** What about the LEL (Rattus norvegicus [7]; duration: 7 days, oral) of the same compound?
**A.** Its LEL is 50 mg/kg-day.

**Q.** What about the LEL (Rattus norvegicus [7]; duration: 42 days, oral, diet) of the same compound?
**A.** The LEL was 500 ppm.

**Q.** What about the LEL (Rattus norvegicus [7]; duration: 98 days, oral, diet) of the same compound?
**A.** Its LEL is 1500 ppm.

**Q.** And the NOEL (Oryctolagus sp. [8])?
**A.** The NOEL was 5.01 mg/kg-day.

**Q.** With `CCOP(=S)(OCC)Oc1ccc([N+](=O)[O-])cc1` [Parathion] as the compound, how does the NOAEL (Homo sapiens [9]; duration: 30 days, oral, capsule, M, neurological) read?
**A.** The NOAEL was 0.09 mg/kg-day.

**Q.** What about the NOAEL (Rattus norvegicus [5]; subchronic, duration: 6 weeks, inhalation, whole body, M, Sprague-Dawley, neurological) of the same compound?
**A.** Its NOAEL is 0.01 mg/m3.

**Q.** What about the NOAEL (Homo sapiens [10]) of the same compound?
**A.** Its NOAEL is 0.064 mg/kg-day.

**Q.** `N#CC(c1ccc(Cl)cc1)c1c(Cl)cc(-n2ncc(=O)[nH]c2=O)cc1Cl` (stereo unspecified) [Diclazuril] was tested. Which LOEL (Mus musculus [11]) did it give?
**A.** Its LOEL is 11 mg/kg-day.

**Q.** And the NOEL (Mus musculus [11])?
**A.** Its NOEL is 3 mg/kg-day.

**Q.** `CCN(CC)CC` [Triethylamine] was tested. Which NOAEL (Rattus norvegicus [12]; duration: 28 weeks, inhalation, no effects) did it give?
**A.** Its NOAEL is 1020 mg/m3.

**Q.** What about the FEL (Rattus norvegicus [13]) of the same compound?
**A.** Its FEL is 4140 mg/m3.

**Q.** For `CN(C)[C@@H]1C(=O)C(C(N)=O)=C(O)[C@@]2(O)C(=O)C3=C(O)c4c(O)cccc4[C@@](C)(O)[C@H]3[C@H](O)[C@@H]12` [Oxytetracycline], which NOEL (Homo sapiens [14]; Selection of resistant enterobacteriaceae) is on record?
**A.** The NOEL was 0.033 mg/kg-day.

**Q.** What does the source list for `C=O` [Formaldehyde]?
**A.** NOAEL (Canidae [15]): 9.4 mg/kg-day; NOAEL (Rattus norvegicus [16]): 25 mg/kg-day; LOAEL (Rattus norvegicus [12]; [28]): 82 mg/kg-day; NOAEL (Rattus norvegicus [12]; [28]): 15 mg/kg-day; LOAEL (Homo sapiens [9]; duration: 2 hours, inhalation, M/F, respiratory): 0.491 mg/m3; NOAEL (Monkey [17]): 1.2 mg/m3; NOAEL (Rattus norvegicus [5]; chronic, duration: 2 years, oral, M/F, Wistar, gastrointestinal): 15 mg/kg-day; NOAEL (Rattus norvegicus [5]; short-term, duration: 4 weeks, oral, drinking water, M/F, Wistar, gastrointestinal): 25 mg/kg-day; NOAEL (Rattus norvegicus [18]): 15 mg/kg-day

**Q.** What does the source list for `FC(F)(Cl)C(F)(F)Cl` [1,2-Dichloro-1,1,2,2-tetrafluoroethane]?
**A.** LC50 (Mus musculus [19]): 4.89e+06 mg/m3; LD0 (Rattus norvegicus [20]): > 2250 mg/kg

**Q.** How did the NOAEL (Homo sapiens [14]; duration: 8 weeks, capsule, F, Inhibition of the type-2 11b-hsd, with a consequent increase in concentrations of cortisol) turn out when `CC1(C)[C@@H](O[C@H]2O[C@H](C(=O)O)[C@@H](O)[C@H](O)[C@H]2O[C@@H]2O[C@H](C(=O)O)[C@@H](O)[C@H](O)[C@H]2O)CC[C@]2(C)[C@H]3C(=O)C=C4[C@@H]5C[C@@](C)(C(=O)O)CC[C@]5(C)CC[C@@]4(C)[C@]3(C)CC[C@@H]12` [Glycyrrhizin] was run?
**A.** Its NOAEL is 2 mg/kg-day.

**Q.** Which LOAEL (Neovison sp.) does the source give for `Clc1cccc(-c2ccc(Cl)c(Cl)c2Cl)c1Cl` [Aroclor 1254] here?
**A.** The LOAEL was 0.69 mg/kg-day.

**Q.** And the NOAEL (Neovison sp.)?
**A.** Its NOAEL is 0.14 mg/kg-day.

**Q.** What about the LOAEL (Peromyscus polionotus) of the same compound?
**A.** Its LOAEL is 0.68 mg/kg-day.

**Q.** And the NOAEL (Peromyscus polionotus)?
**A.** Its NOAEL is 0.068 mg/kg-day.

**Q.** What about the LOAEL (Phasianus colchicus) of the same compound?
**A.** Its LOAEL is 1.8 mg/kg-day.

**Q.** And the NOAEL (Phasianus colchicus)?
**A.** The NOAEL was 0.18 mg/kg-day.

**Q.** And the LOAEL (Monkey [21])?
**A.** The LOAEL was 0.005 mg/kg-day.

**Q.** And the LOAEL (Monkey [22])?
**A.** Its LOAEL is 0.005 mg/kg-day.

**Q.** What does the source list for `CNC(=O)Oc1cccc2c1OC(C)(C)C2` [Carbofuran]?
**A.** LD50 (Oryctolagus sp. [23]; acute, dermal, semiocclusive): < 2000 mg/kg; NOAEL (Oryctolagus sp. [23]; reproduction developmental, oral, gavage, F): ≥ 2 mg/kg-day; LC50 (Rattus norvegicus [1]; acute, inhalation, particle, Sprague-Dawley): 0.05 µg/mL (≈ 0.226 µM); LD50 (Rattus norvegicus [1]; acute, oral, diet, Sprague-Dawley): 5.3 mg/kg and 13.2 mg/kg; LD50 (Rattus norvegicus [1]; [27]): 7 mg/kg and 8.8 mg/kg and 13.3 mg/kg; NOAEL (Rattus norvegicus [1]; developmental, duration: 14 days, oral, diet, Sprague-Dawley): 160 ppm; NOAEL (Rattus norvegicus [1]; reproduction developmental, duration: 14 days, oral, diet, F, Sprague-Dawley): 20 ppm; NOAEL (Rattus norvegicus [1]; reproduction developmental, oral, diet, Crl:CD(SD)): 20 ppm; LEL (Canidae [24]): 12.5 mg/kg-day; NOEL (Canidae [24]): 0.5 mg/kg-day; NOEL (Rattus norvegicus [7]; Hershberger, duration: 10 days, oral, gavage, Sprague-Dawley, inactive + Negative + Negative + neither + negative): 0.3 mg/kg-day; NOEL (Canidae [25]): 0.5 mg/kg-day; LD40 (Rattus norvegicus [26]): 5.6 mg/kg
